Source: PMC6278537, “Simultaneous Determination and Pharmacokinetics Study of Six Triterpenes in Rat Plasma by UHPLC-MS/MS after Oral Administration of Sanguisorba officinalis L. Extract” (Molecules, 2018)
Read-outs that look alike come from different tables or passages of the source.

How the values were obtained:
[1] = Pharmacokinetic study in rats after single oral administration of S. officinalis extract (UHPLC-MS/MS of plasma); type: in vivo, Sprague-Dawley rats
Experimental: The UHPLC-MS/MS method was successfully used in the pharmacokinetic studies of six analytes after single dose administration of S. officinalis extract in rats. Based on the body surface area calculations of people and the animals and equivalent dose conversion calculations, the dosage of the rats was 0.015 g/kg. The half-time (t1/2), maximum plasma concentration (Cmax), time to reach Cmax (Tmax), and area under concentration–time curve (AUC0→t and AUC0→∞) were calculated via non-compartmental analysis (Table 6). The pharmacokinetic parameters of six components were reckoned by means of non-compartmental analysis using DAS 2.0 (Shanghai, China).
The experimental protocol was permitted by the Animal Ethics Committee of Harbin Medical University and conformed to the principles for the Care and Use of Laboratory Animals. Twelve male Sprague-Dawley rats (Weight 200 ± 20 g) were provided by the Laboratory Animal Centre of Harbin Medical University (Harbin, China). Each rat was fasted for 12 h before giving the drug and had free water supply even during the experiment. The S. officinalis extract was dissolved in water. A single dose of the S. officinalis extract (0.015 g/kg) was administrated to the rats. Blood (0.3 mL) was gained from the retinal venous plexus at 0, 0.083, 0.25, 0.5 1.0, 1.5, 2.0, 3.0, 4.0, 6.0, 8.0, 12.0 and 24.0 h after dosing. The plasma was immediately separated by centrifugation at 12000 rpm for 5 min at […].
Ten microliters of IS (1040.0 ng/mL) solution and 100 μL of methanol were added to 100 μL aliquot of plasma sample and vortexed for 30 s. The mixture was extracted with 3 mL ethyl acetate by being vortex-mixed for 1 min. The supernatant was separated and evaporated to dryness by N2 blowing at 40 °C after centrifuging at 3800 rpm for 5 min. The residue was reconstituted with 100 μL of methanol, and then vortex-mixed for 2 min and filtered by a 0.22 μm nylon 66 organic membrane. This was followed by injection of 5 μL aliquot of the solution into the UHPLC-MS/MS system (Agilent Technologies, Santa Clara, CA, USA).
The maximum concentration (Cmax) and the time to attain it (Tmax) were observed directly from the measured data. The elimination rate constant (Ke) was calculated by linear regression of the terminal points in a semi-log plot of the plasma concentration against time. The elimination half-life (t1/2) was calculated using the formula t1/2 = 0.693/Ke. The area under plasma concentration–time curve (AUC0→t) to the last measurable plasma concentration (Ct) was estimated by using the linear trapezoidal rule. The area under the plasma concentration–time curve to time infinity (AUC0→∞) was calculated as: AUC0→∞ = AUC0→t + Ct/Ke. The pharmacokinetic parameters of six analytes were reckoned by non-compartmental analysis using DAS 2.0 (Mathematical Pharmacology Professional Committee of China, Shanghai, China).

[2] = Stability of analytes in rat plasma under various storage conditions; type: in vitro ADME; conditions: for Stability Post-Preparation: 12 h after sample preparation at 4 °C; for Stability Short-Term / Stability Long-Term / Stability Three Freeze-Thaw: rat plasma; for Stability Short-Term: room temperature 4 h; for Stability Long-Term: storage for 2 weeks; for Stability Three Freeze-Thaw: three freeze–thaw cycles at −20 °C
Experimental: The stability of six analytes in rat plasma was estimated under different storage conditions. […] Post-preparative stability of analytes also implied that there was no obvious degradation when samples were kept at 4 °C for 12 h. In addition, all compounds remained stable for two weeks at […].
The stability of six compounds in rat plasma including freeze and thaw stability (three freeze–thaw cycles at −20 °C), long-term stability (storage for 2 weeks at −80 °C), room temperature stability (storage for 4 h at ambient temperature), and post-preparation stability […] All stability testing QC samples were determined by using the calibration curve of freshly prepared standard samples.

[3] = male, Sprague-Dawley, rat plasma, single oral dose of S. officinalis extract 0.015 g/kg, n = 12, mean ± SD
[4] = rats, after oral administration of S. officinalis extract, Figure 4

C=C1[C@H]2C3=CC[C@@H]4[C@@]5(C)C[C@@H](O)[C@@H](O)C(C)(C)[C@@H]5CC[C@@]4(C)[C@]3(C)CC[C@@]2(C(=O)O[C@@H]2O[C@H](CO)[C@@H](O)[C@H](O)[C@H]2O)CC[C@H]1C [VI, alpinoside]
Cmax ([1]; male, Sprague-Dawley, rat, plasma, po, 0.015 g/kg, rat plasma, single oral dose of S. officinalis extract 0.015 g/kg, n = 12, mean ± SD, read-out: Cmax): 243 ± 19.9 ng/mL
AUC(0-inf) [1, 3]: 1110 ± 98.1 ng·h/mL
AUC(0-t) [1, 3]: 1030 ± 73.4 ng·h/mL
Tmax [1, 3]: 1.17 ± 0.26 h
half-life [1, 3]: 7.72 ± 1.22 h
Cmax ([1]; rat plasma, single oral dose of S. officinalis extract 0.015 g/kg, n = 12, mean ± SD): 243.2 ± 19.9 ng/mL
time of first peak of mean plasma concentration-time curve (double-peak phenomenon) [1, 4]: 0.5 to 1.5 h
time of second peak of mean plasma concentration-time curve (double-peak phenomenon) [1, 4]: 4 to 8 h
Stability Post-Preparation ([2]; high QC spiked concentration): 4.85 % RE
Stability Post-Preparation ([2]; low QC spiked concentration): 3.18 % RE
Stability Post-Preparation ([2]; medium QC spiked concentration): 9.78 % RE
Stability Short-Term ([2]; high QC spiked concentration): 3.26 % RE
Stability Short-Term ([2]; low QC spiked concentration): −10.78 % RE
Stability Short-Term ([2]; medium QC spiked concentration): 2.34 % RE
Stability Long-Term ([2]; high QC spiked concentration): 5.28 % RE
Stability Long-Term ([2]; low QC spiked concentration): −2.07 % RE
Stability Long-Term ([2]; medium QC spiked concentration): 2.79 % RE
Stability Three Freeze-Thaw ([2]; high QC spiked concentration): −1.64 % RE
Stability Three Freeze-Thaw ([2]; low QC spiked concentration): 2.74 % RE
Stability Three Freeze-Thaw ([2]; medium QC spiked concentration): 6.61 % RE
